Measurements: patent US10857113B2, “Bezafibrate for the treatment of cancer” (Cipla Limited, priority 2016, dated 2020)

Test system: A498 cells
Assay: In vivo animal efficacy study, subcutaneous tumor fragment xenograft
Design: species or system female athymic nude mice
Conditions: sunitinib 20 mg/kg, bezafibrate 150 mg/kg, p.o. q.d. × 21
Protocol: Healthy 10 female athymic nude mice were recruited for the donor cell inoculation. Animals were subcutaneously injected at flank region with 10 million A498 cells suspended in 200 μl of media and matrigel. Animals were monitored for solid tumor growth. […] Tumors were fragmented in to ˜30 mg size. […] [table] The tumor sizes were measured weekly twice from the date of tumor appearance till the end of the experiment. Tumor size was measured by digital vernier caliper (MITUTOYO) by measuring length (L=longest axis) and width (W=shortest axis). Tumor Volume (V) was calculated using formula: […] Mean tumor volume and % tumor growth inhibition (% TGI) were then calculated (SEM=standard error of mean).

CCN(CC)CCNC(=O)c1c(C)[nH]c(/C=C2\C(=O)Nc3ccc(F)cc32)c1C [Sunitinib]
Tumor Growth Inhibition (Day 1): 1.47%
Tumor Volume, Mean (Day 1): 145.40 mm^3
Tumor Growth Inhibition (Day 6): 47.31%
Tumor Volume, Mean (Day 6): 174.90 mm^3
Tumor Growth Inhibition (Day 9): 43.52%
Tumor Volume, Mean (Day 9): 261.95 mm^3
Tumor Growth Inhibition (Day 13): 44.80%
Tumor Volume, Mean (Day 13): 340.62 mm^3
Tumor Growth Inhibition (Day 16): 53.39%
Tumor Volume, Mean (Day 16): 448.05 mm^3
Tumor Growth Inhibition (Day 20): 50.78%
Tumor Volume, Mean (Day 20): 630.25 mm^3
